Values after ≈ are worked out from the molar mass of the structure shown.
Experiments:
Assay in all cases: 5-FU toxicity, MTS assay
Assay type in all cases: cell-based
BXPC-3 = conditions: Homo sapiens, 120 h, 5 days
Method: (§1) Tumor cells (5×10^4) were plated in 96 well plates and allowed to adhere overnight. Cells were then incubated continuously in the presence of increasing concentrations of 5-FU (0-200 μg/ml) and assayed for toxicity using an MTS assay (Promega, Madison Wis.) after 5-days. ICx values were calculated as previously described. U251MG glioma cells were as sensitive to 5-FU as LS174T and WiDR colon carcinoma cells, while D54MG, U87MG and U118MG glioma cells and AsPC-1 pancreatic carcinoma cells were 3-fold less sensitive (Table 2).

D54MG = conditions: Homo sapiens, 120 h, 5 days
Method: as §1

U87MG = conditions: Homo sapiens, U-87 MG, 120 h, 5 days
Method: as §1

WiDr = conditions: Homo sapiens, 120 h, 5 days
Method: as §1

U118MG = conditions: Homo sapiens, U-118-MG, 120 h, 5 days
Method: as §1

ASPC-1 = conditions: Homo sapiens, ASPC1, 120 h, 5 days
Method: as §1

U251MG = conditions: Homo sapiens, U-251, 120 h, 5 days
Method: as §1

SMILES: O=c1[nH]cc(F)c(=O)[nH]1 [5-FU, 5-fluorouracil]
- IC20 (BXPC-3): 0.01 µg/mL (≈ 0.0769 µM)
- IC50 (BXPC-3): 0.04 µg/mL (≈ 0.308 µM)
- IC80 (BXPC-3): 0.69 µg/mL (≈ 5.3 µM)
- IC20 (D54MG): 0.33 µg/mL (≈ 2.54 µM)
- IC50 (D54MG): 1.1 µg/mL (≈ 8.46 µM)
- IC80 (D54MG): 8.53 µg/mL (≈ 65.6 µM)
- IC20 (U87MG): 0.37 µg/mL (≈ 2.84 µM)
- IC50 (U87MG): 1.06 µg/mL (≈ 8.15 µM)
- IC80 (U87MG): 14 µg/mL (≈ 108 µM)
- IC20 (WiDr): 0.03 µg/mL (≈ 0.231 µM)
- IC50 (WiDr): 0.13 µg/mL (≈ 0.999 µM)
- IC80 (WiDr): 1.7 µg/mL (≈ 13.1 µM)
- IC20 (U118MG): 0.24 µg/mL (≈ 1.85 µM)
- IC50 (U118MG): 1.06 µg/mL (≈ 8.15 µM)
- IC80 (U118MG): 61.5 µg/mL (≈ 473 µM)
- IC20 (ASPC-1): 0.04 µg/mL (≈ 0.308 µM)
- IC50 (ASPC-1): 1.58 µg/mL (≈ 12.1 µM)
- IC80 (ASPC-1): 39.4 µg/mL (≈ 303 µM)
- IC20 (U251MG): 0.07 µg/mL (≈ 0.538 µM)
- IC50 (U251MG): 0.38 µg/mL (≈ 2.92 µM)
- IC80 (U251MG): 3.81 µg/mL (≈ 29.3 µM)
